Data from patent US20130267551A1, “SUBSTITUTED HYDROGENATED THIENO-PYRROLO[3,2-C]PYRIDINE, LIGANDS, A PHARMACEUTICAL COMPOSITION AND A METHOD FOR USING THE ABOVE” (ALLA CHEM, LLC, priority 2010, published 2013).
Counter-ions that a name gives are not always drawn.

Tests used:
Adrenergic α1A = assay: competitive radioligand binding, Adrenergic α1A; details: compound concentration of 1 μM
Procedure: (§1) Profiles of pharmacological activity of thieno-pyrrolo[3,2-c]pyridines of the general formula 1. Biological activity test of compounds of the general formula 1 was carried out in the setting of competitive radioligand binding [I. Okun, S. Tkachenko, A. Khvat, et al., Current Alzheimer Research, 7(2), 97-112 (2010)], using a wide range of therapeutic targets including G-protein coupled receptors (GPCR), ion channels and neuromediator transporters. The tested activity was determined by quantitative measurement of radio-labelled ligand displacement by tested compounds of the general formula 1 at their concentration of 1 μM.

Adrenergic α1B = assay: competitive radioligand binding, Adrenergic α1B; details: compound concentration of 1 μM
Procedure: as §1

Adrenergic α1D = target: T1, Adrenergic α1D (Homo sapiens, UniProt P25100); assay: competitive radioligand binding, Adrenergic α1D; details: compound concentration of 1 μM
T1 sequence (P25100 1-572): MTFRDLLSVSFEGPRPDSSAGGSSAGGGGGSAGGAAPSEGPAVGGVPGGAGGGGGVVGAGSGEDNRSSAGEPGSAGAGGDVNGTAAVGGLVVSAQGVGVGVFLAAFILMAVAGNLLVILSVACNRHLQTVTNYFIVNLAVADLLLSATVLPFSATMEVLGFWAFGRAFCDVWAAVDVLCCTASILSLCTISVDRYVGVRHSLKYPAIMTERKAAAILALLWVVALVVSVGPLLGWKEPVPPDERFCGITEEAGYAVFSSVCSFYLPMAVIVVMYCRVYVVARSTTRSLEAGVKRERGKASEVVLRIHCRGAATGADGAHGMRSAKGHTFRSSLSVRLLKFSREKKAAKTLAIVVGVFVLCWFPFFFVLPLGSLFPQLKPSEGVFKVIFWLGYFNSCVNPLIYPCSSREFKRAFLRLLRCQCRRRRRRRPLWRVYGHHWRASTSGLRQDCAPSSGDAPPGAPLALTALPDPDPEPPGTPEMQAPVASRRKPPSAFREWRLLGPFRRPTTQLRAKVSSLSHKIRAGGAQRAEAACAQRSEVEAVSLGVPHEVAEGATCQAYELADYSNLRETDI
Procedure: as §1

Adrenergic α2A = target: T2, Adrenergic α2A (Homo sapiens, UniProt P08913); assay: competitive radioligand binding, Adrenergic α2A; details: compound concentration of 1 μM
T2 sequence (P08913 1-465): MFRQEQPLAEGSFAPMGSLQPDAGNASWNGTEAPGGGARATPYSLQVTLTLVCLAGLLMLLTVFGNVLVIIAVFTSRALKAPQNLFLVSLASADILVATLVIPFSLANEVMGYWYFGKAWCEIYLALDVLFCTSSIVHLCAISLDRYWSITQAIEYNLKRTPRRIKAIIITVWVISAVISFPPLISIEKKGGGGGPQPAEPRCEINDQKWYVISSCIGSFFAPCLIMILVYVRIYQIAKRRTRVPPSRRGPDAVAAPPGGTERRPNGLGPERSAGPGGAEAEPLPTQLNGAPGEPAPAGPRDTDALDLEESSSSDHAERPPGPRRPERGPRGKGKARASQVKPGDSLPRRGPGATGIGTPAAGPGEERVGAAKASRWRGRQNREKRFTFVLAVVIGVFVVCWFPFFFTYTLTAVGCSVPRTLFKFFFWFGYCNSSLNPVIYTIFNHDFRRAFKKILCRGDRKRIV
Procedure: as §1

Dopaminergic D1 = Dopaminergic D1 (Homo sapiens, UniProt P21728); assay: competitive radioligand binding, Dopaminergic D1; details: compound concentration of 1 μM
Sequence of Dopaminergic D1 (P21728 whole entry): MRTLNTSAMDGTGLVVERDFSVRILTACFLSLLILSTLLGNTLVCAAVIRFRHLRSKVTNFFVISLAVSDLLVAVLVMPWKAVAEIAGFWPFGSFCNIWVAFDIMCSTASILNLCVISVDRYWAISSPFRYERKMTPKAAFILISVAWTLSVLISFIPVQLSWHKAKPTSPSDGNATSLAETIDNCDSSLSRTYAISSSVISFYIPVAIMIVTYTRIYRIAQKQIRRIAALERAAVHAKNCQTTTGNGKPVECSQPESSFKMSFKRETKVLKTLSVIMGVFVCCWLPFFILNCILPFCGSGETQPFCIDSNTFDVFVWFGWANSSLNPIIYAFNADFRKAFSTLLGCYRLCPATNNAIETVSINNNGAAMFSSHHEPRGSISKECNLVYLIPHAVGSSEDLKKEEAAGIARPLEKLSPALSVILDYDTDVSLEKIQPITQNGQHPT
Procedure: as §1

Dopaminergic D2L = Dopaminergic D2L (Homo sapiens, UniProt P14416); assay: competitive radioligand binding, Dopaminergic D2L; details: compound concentration of 1 μM
Sequence of Dopaminergic D2L (P14416 whole entry): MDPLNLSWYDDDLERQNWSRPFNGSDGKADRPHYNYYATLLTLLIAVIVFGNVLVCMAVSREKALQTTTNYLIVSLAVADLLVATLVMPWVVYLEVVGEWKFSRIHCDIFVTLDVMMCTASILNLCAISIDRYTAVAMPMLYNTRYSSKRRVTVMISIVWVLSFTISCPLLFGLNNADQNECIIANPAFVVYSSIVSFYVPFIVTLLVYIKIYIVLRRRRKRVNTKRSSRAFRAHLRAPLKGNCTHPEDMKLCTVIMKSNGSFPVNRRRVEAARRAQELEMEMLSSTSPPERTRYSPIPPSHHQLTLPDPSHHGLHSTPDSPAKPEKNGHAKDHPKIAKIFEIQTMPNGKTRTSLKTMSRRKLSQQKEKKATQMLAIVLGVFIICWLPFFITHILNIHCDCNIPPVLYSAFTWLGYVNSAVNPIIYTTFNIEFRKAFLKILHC
Procedure: as §1

Dopaminergic D2S = Dopaminergic D2S (Homo sapiens, UniProt P14416); assay: competitive radioligand binding, Dopaminergic D2S; details: compound concentration of 1 μM
Sequence of Dopaminergic D2S (P14416 1-414 isoform P14416-2): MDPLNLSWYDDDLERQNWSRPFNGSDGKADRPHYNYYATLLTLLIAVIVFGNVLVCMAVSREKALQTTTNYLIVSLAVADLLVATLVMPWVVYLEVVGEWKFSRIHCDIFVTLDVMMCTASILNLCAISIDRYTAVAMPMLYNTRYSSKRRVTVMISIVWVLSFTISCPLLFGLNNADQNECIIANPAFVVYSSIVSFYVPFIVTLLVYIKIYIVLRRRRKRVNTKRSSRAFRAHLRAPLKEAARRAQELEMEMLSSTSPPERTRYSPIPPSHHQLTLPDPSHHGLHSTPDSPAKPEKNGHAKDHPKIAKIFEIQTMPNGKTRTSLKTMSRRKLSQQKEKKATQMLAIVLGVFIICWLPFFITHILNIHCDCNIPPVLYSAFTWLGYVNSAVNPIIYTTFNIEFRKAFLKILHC
Procedure: as §1

Dopaminergic D3 = Dopaminergic D3 (Homo sapiens, UniProt P35462); assay: competitive radioligand binding, Dopaminergic D3; details: compound concentration of 1 μM
Sequence of Dopaminergic D3 (P35462 whole entry): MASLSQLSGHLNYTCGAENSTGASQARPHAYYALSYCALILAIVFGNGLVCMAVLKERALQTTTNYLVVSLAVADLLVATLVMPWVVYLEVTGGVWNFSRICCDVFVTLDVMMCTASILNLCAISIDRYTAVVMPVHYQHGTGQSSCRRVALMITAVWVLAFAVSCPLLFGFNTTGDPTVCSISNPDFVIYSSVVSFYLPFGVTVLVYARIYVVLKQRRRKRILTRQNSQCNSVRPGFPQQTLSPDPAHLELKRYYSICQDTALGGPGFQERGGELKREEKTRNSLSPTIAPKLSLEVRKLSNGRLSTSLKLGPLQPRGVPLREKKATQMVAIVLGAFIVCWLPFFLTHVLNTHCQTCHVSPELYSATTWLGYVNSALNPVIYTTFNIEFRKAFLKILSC
Procedure: as §1

Dopaminergic D4.2 = target: T3, Dopaminergic D4.2 (Homo sapiens, UniProt P21917, DEL265-296); assay: competitive radioligand binding, Dopaminergic D4.2; details: compound concentration of 1 μM
T3 sequence (P21917 with tags, fused parts or gaps DEL265-296): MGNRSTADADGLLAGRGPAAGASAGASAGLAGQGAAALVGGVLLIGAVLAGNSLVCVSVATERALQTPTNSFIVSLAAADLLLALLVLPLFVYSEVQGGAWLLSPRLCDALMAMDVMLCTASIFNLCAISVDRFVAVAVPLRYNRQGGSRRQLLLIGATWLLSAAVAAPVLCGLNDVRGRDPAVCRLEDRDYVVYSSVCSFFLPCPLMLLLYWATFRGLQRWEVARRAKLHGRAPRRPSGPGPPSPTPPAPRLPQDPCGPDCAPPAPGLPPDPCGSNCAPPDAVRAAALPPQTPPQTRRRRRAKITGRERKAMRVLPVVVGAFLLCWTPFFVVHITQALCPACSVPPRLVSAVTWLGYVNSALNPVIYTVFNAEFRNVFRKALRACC
Procedure: as §1

Histaminergic H1 = Histaminergic H1 (Homo sapiens, UniProt P35367); assay: competitive radioligand binding, Histaminergic H1; details: compound concentration of 1 μM
Sequence of Histaminergic H1 (P35367 whole entry): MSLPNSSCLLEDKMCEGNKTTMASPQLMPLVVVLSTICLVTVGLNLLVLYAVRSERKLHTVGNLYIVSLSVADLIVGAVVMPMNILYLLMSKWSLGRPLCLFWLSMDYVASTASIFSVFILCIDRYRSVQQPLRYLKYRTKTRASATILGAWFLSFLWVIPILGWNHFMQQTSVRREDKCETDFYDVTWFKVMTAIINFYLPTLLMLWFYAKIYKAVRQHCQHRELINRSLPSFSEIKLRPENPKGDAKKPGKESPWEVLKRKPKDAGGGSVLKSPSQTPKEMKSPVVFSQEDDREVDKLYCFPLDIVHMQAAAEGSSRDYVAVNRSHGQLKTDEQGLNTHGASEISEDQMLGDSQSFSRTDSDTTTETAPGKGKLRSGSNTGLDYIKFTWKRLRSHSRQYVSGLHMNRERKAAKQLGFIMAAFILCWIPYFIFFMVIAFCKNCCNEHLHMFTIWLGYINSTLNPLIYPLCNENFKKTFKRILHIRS
Procedure: as §1

Histaminergic H2 = Histaminergic H2 (Homo sapiens, UniProt P25021); assay: competitive radioligand binding, Histaminergic H2; details: compound concentration of 1 μM
Sequence of Histaminergic H2 (P25021 whole entry): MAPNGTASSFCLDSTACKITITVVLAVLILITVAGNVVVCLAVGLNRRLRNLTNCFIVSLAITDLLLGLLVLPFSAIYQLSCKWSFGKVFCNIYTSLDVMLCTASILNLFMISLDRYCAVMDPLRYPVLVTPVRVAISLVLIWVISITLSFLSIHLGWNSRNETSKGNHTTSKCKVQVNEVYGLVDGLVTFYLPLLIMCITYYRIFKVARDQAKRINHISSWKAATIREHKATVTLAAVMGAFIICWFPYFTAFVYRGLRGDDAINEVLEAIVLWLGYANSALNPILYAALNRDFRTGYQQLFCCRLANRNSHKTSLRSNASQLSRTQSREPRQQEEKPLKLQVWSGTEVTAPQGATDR
Procedure: as §1

Histaminergic H3 = Histaminergic H3 (Homo sapiens, UniProt Q9Y5N1); assay: competitive radioligand binding, Histaminergic H3; details: compound concentration of 1 μM; in % (unit assumed)
Sequence of Histaminergic H3 (Q9Y5N1 whole entry): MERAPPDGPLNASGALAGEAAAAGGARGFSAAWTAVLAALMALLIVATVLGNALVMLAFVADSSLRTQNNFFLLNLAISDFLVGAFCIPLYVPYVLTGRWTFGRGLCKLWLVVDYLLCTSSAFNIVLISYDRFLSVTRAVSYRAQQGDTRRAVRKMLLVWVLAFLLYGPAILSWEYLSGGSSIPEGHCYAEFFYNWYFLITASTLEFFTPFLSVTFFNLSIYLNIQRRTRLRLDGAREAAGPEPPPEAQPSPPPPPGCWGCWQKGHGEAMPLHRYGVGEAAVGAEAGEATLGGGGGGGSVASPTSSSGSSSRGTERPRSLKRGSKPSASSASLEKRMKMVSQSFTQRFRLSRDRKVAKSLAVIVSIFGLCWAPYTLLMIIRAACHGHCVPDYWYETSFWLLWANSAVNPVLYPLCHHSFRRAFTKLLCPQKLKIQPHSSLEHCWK
Procedure: as §1

Serotoninergic 5-HT1A = target: T4, Serotoninergic 5-HT1A (Homo sapiens, UniProt P08908); assay: competitive radioligand binding, Serotoninergic 5-HT1A; details: compound concentration of 1 μM
T4 sequence (P08908 1-422): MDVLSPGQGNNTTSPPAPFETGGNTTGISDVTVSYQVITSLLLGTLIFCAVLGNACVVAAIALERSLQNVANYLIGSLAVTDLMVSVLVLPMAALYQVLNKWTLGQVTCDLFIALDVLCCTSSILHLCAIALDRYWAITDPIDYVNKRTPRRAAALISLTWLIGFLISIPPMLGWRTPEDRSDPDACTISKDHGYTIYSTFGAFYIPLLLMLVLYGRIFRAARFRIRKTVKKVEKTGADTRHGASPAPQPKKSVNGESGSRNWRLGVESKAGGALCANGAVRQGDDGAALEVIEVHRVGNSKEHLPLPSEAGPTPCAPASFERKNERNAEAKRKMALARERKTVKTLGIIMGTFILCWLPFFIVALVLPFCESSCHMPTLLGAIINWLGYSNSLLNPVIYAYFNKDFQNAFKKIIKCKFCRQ
Procedure: as §1

Serotoninergic 5-HT1B = assay: competitive radioligand binding, Serotoninergic 5-HT1B; details: compound concentration of 1 μM
Procedure: as §1

Serotoninergic 5-HT2A = Serotoninergic 5-HT2A (Homo sapiens, UniProt P28223); assay: competitive radioligand binding, Serotoninergic 5-HT2A; details: compound concentration of 1 μM
Sequence of Serotoninergic 5-HT2A (P28223 whole entry): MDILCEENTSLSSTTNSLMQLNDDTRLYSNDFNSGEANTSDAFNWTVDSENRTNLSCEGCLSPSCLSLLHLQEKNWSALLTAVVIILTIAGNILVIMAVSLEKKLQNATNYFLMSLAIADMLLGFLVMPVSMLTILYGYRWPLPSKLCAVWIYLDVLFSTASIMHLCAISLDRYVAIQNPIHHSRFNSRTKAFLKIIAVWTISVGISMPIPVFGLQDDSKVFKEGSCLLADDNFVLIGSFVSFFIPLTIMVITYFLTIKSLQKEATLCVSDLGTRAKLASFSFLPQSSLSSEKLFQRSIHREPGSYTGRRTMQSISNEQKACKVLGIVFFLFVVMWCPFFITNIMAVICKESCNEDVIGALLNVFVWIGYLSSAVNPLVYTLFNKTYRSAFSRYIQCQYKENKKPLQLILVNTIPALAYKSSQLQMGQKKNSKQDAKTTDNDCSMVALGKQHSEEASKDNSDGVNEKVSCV
Procedure: as §1

Serotoninergic 5-HT2B = Serotoninergic 5-HT2B (Homo sapiens, UniProt P41595); assay: competitive radioligand binding, Serotoninergic 5-HT2B; details: compound concentration of 1 μM
Sequence of Serotoninergic 5-HT2B (P41595 whole entry): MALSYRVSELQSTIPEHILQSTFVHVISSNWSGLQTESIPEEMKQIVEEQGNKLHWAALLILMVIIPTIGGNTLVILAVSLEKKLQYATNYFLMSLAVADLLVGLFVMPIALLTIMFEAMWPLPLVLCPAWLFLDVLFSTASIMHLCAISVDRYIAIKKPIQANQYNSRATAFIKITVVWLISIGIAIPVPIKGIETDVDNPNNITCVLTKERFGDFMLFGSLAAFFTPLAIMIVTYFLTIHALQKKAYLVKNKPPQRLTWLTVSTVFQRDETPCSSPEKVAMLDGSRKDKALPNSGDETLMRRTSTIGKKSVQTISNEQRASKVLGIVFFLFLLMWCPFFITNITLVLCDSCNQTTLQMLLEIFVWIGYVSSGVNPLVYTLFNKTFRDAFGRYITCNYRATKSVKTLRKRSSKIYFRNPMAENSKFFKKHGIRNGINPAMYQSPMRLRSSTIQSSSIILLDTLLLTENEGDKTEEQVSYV
Procedure: as §1

Serotoninergic 5-HT2C = target: T5, Serotoninergic 5-HT2C (Homo sapiens, UniProt P28335); assay: competitive radioligand binding, Serotoninergic 5-HT2C; details: compound concentration of 1 μM
T5 sequence (P28335 33-458): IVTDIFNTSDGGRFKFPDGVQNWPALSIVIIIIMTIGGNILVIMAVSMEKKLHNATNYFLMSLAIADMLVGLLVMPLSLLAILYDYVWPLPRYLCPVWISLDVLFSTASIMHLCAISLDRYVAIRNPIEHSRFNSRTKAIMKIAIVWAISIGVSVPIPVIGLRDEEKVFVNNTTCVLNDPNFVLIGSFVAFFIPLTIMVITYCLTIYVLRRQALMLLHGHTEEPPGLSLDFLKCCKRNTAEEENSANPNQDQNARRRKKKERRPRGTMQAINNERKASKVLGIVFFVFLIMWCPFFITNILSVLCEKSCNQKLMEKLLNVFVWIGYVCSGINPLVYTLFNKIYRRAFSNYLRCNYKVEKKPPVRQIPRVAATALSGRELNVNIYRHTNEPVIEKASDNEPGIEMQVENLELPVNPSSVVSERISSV
Procedure: as §1

Serotoninergic 5-HT6 = Serotoninergic 5-HT6 (Homo sapiens, UniProt P50406); assay: competitive radioligand binding, Serotoninergic 5-HT6; details: compound concentration of 1 μM
Sequence of Serotoninergic 5-HT6 (P50406 whole entry): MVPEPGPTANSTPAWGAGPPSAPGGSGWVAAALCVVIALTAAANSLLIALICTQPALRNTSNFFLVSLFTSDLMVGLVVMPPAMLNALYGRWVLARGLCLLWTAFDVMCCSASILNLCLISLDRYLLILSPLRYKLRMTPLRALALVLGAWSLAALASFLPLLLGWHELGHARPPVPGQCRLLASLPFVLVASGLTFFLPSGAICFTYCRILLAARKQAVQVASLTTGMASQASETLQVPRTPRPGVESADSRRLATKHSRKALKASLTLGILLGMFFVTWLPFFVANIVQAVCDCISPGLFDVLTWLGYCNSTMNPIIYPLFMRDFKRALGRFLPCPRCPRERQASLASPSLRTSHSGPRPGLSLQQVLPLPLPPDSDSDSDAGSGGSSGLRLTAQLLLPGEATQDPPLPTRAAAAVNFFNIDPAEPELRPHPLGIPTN
Procedure: as §1

Serotoninergic 5-HT7 = Serotoninergic 5-HT7 (Homo sapiens, UniProt P34969); assay: competitive radioligand binding, Serotoninergic 5-HT7; details: compound concentration of 1 μM
Sequence of Serotoninergic 5-HT7 (P34969 whole entry): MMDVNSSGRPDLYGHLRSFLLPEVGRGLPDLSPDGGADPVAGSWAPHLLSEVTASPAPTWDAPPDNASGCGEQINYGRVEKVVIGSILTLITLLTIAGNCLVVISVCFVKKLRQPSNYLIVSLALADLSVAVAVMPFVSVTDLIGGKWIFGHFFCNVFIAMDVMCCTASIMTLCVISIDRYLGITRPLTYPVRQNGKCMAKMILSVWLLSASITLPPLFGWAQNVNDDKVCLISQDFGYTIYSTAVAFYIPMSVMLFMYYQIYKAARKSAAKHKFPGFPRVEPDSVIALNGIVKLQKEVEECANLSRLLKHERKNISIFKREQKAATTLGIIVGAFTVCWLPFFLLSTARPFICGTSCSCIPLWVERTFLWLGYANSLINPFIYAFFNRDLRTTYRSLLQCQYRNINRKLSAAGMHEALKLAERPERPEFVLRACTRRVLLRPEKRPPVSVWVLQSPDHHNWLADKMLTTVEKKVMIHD
Procedure: as §1

[1] = test system: Therapeutic targets (Adrenergic, Dopaminergic, Histaminergic, Serotoninergic); assay: Profiles of pharmacological activity in competitive radioligand binding (whole panel); details: 1 μM, grades not defined
Procedure: as §1

SMILES | radio-labelled ligand displacement, Adrenergic α1A (Adrenergic α1A) | radio-labelled ligand displacement, Adrenergic α1B (Adrenergic α1B) | radio-labelled ligand displacement, Adrenergic α1D (Adrenergic α1D) | radio-labelled ligand displacement, Adrenergic α2A (Adrenergic α2A) | radio-labelled ligand displacement, Dopaminergic D1 (Dopaminergic D1) | radio-labelled ligand displacement, Dopaminergic D2L (Dopaminergic D2L) | radio-labelled ligand displacement, Dopaminergic D2S (Dopaminergic D2S) | radio-labelled ligand displacement, Dopaminergic D3 (Dopaminergic D3) | radio-labelled ligand displacement, Dopaminergic D4.2 (Dopaminergic D4.2) | radio-labelled ligand displacement, Histaminergic H1 (Histaminergic H1) | radio-labelled ligand displacement, Histaminergic H2 (Histaminergic H2) | radio-labelled ligand displacement, Histaminergic H3 (Histaminergic H3) | radio-labelled ligand displacement, Serotoninergic 5-HT1A (Serotoninergic 5-HT1A) | radio-labelled ligand displacement, Serotoninergic 5-HT1B (Serotoninergic 5-HT1B) | radio-labelled ligand displacement, Serotoninergic 5-HT2A (Serotoninergic 5-HT2A) | radio-labelled ligand displacement, Serotoninergic 5-HT2B (Serotoninergic 5-HT2B) | radio-labelled ligand displacement, Serotoninergic 5-HT2C (Serotoninergic 5-HT2C) | radio-labelled ligand displacement, Serotoninergic 5-HT6 (Serotoninergic 5-HT6) | radio-labelled ligand displacement, Serotoninergic 5-HT7 (Serotoninergic 5-HT7) | grade of the activity profile (poor / satisfactory / good) [1]
Cc1cc2c3c(n(CC(O)c4ccccc4)c2s1)CCN(C)C3.Cl (stereo not drawn) [3.7(1)•HCl, 2-(2,5-Dimethyl-4,5,6,7-tetrahydro-5H-thieno[3′,2′:4,5]pyrrolo[3,2-c]pyridin-8-yl)-1-phenylethanol hydrochloride] | 79% | 89% | 86% | 91% | 47% | 35% | 29% | 23% | 33% | 89% | 57% | −3 | 18% | 30% | 97% | 63% | 94% | 99% | 96% | –
Cc1csc2c1c1c(n2CCCc2ccccc2)CCN(C)C1 [3.12(1)•HCl] | 98% | 99% | 92% | 101% | 57% | 82% | 89% | 75% | 73% | 98% | 99% | 11 | 43% | 54% | 99% | 91% | 97% | 101% | 98% | good
